Laboratory results published in paper PMC6943434, “Novel Homo-Bivalent and Polyvalent Compounds Based on Ligustrazine and Heterocyclic Ring as Anticancer Agents” (Molecules, 2019).
Like-named read-outs stand apart in the source and are kept apart here.

How the values were obtained:
[1] = tested on: Hep G2 (hepatocarcinoma cell line); assay: MTT cell viability assay, Hep G2; format: cell-based; conditions: Homo sapiens, HepG2, 48 h, read-out: Antiproliferative Activity IC50 ± SEM, Hep G2
Experimental: (§1) The tested cells were obtained from Shanghai Institute of Biochemistry and Cell Biology of the Chinese Academy of Sciences (Shanghai, China). HeLa and Hep G2 cell lines were cultured in Dulbecco’s modified Eagle’s medium (DMEM; gibco, Life Technologies, Carlsbad, CA, USA) supplemented with 10% fetal bovine serum (FBS; Biological Industries), 100 U/mL penicillin-streptomycin (PS; gibco, Life Technologies, Carlsbad, CA, USA). MCF-7 and A549 cell lines were maintained in RPMI-1640 media (gibco, Life Technologies, Carlsbad, CA, USA) supplemented with 10% FBS and 100 U/mL PS. FaDu cell lines were cultured in minimum essential medium (MEM; Gibco, Life Technologies, Carlsbad, CA, USA) supplemented with 10% FBS and 100 U/mL PS. MCF 10A cell lines were maintained in Mammary MEGM kit (Lonza/Clonetics) supplemented with 100 ng/mL cholera toxin (Sigma, Shanghai, China). Cell lines were grown at 37 °C in a humidified atmosphere of 5% CO2.
(§2) The growth-inhibitory effects against HeLa, Hep G2, MCF-7, FaDu, and A549 cancer cells and normal cell lines MCF 10A were determined by MTT assay. […] Cells were seeded in 96 well plates at a density of 1 × 10^4 cells per well and incubated for 24 h at 37 °C in a humidified atmosphere of 5% CO2. The cells were then incubated with various concentrations of drugs for 48 h in a 5% CO2 incubator at 37 °C. After treatment with 1 mg/mL 3-(4,5-dimethylthiazol-2-yl)-2,5-diphenyltetrazolium bromide (MTT) solution for 4 h, the formazan crystals were dissolved in 100 µL DMSO in each well. Plates were read on a microplate reader (Thermo Varioskan Flash 3001) at 490 nm. The experiment was performed in triplicate. The inhibitory concentration at 50% (IC50) was calculated based on concentration-inhibition relationships via regression using SPSS software (Version 17.0).

[2] = tested on: HeLa, Hep G2, MCF-7, FaDu, A549, MCF 10A; assay: MTT cell viability assay, summary over the cell line panel; format: cell-based, human; conditions: 48 h, span over the cell lines, read-out: IC50 range over tested cell lines
Experimental: as §1, §2

[3] = tested on: MCF 10A (normal mammary epithelial cell); assay: MTT cell viability assay, MCF 10A; format: cell-based; conditions: Homo sapiens, 48 h, normal cells, read-out: Antiproliferative Activity IC50 ± SEM, MCF 10A
[4] = tested on: MCF-7 (breast cancer cell line); assay: MTT cell viability assay, MCF-7; format: cell-based; conditions: Homo sapiens, MCF7, 48 h, read-out: Antiproliferative Activity IC50 ± SEM, MCF-7
Experimental: as §1, §2

[5] = tested on: A549 (epithelial cancer cell line); assay: MTT cell viability assay, A549; format: cell-based; conditions: Homo sapiens, 48 h, read-out: Antiproliferative Activity IC50 ± SEM, A549
Experimental: as §1, §2

[6] = tested on: HeLa (cervical cancer cell line); assay: MTT cell viability assay, HeLa; format: cell-based; conditions: Homo sapiens, 48 h, read-out: Antiproliferative Activity IC50 ± SEM, HeLa
Experimental: as §1, §2

[7] = tested on: FaDu (head and neck squamous carcinoma cell line); assay: MTT cell viability assay, FaDu; format: cell-based, human
Experimental: as §1, §2

[8] = tested on: FaDu cells; assay: Flow cytometric analysis of apoptosis by annexin V-FITC/PI staining; format: cell-based, human; conditions: 24 h, control 8.23%
Experimental: Apoptosis in FaDu cells was evaluated by an annexin V-FITC/PI apoptosis detection kit (Beyotime Institute of Biotechnology, Shanghai, China). Briefly, FaDu cells were treated with various concentrations of compound 8e (2, 5, 10 nM) or DMSO as vehicle control for 24 h at 37 °C; then, the cells were washed twice with cold 1× PBS and centrifuged at 1000 rpm for 5 min. The harvested cells were resuspended gently in 400 µL binding buffer, containing 5 µL annexin V-FITC and 10 µL PI. After incubating for 15 min in the dark at room temperature, the cells were analyzed with flow cytometry (CyFlow® Cube 6, Sysmex). Data were shown as pseudo color graphs and analyzed using FlowJo Software (Tree Star Inc, Ashland, OR).

[9] = tested on: FaDu cells; assay: Cell cycle analysis by PI staining; format: cell-based, human; conditions: 24 h; for percentage of cells in the S phase: control 28.1%; for population of the G0/G1 phase: control 51.9%
Experimental: The cell cycle analysis was carried out by a cell cycle and apoptosis analysis kit with a propidium iodide (PI) staining method (Beyotime Institute of Biotechnology, Shanghai, China). Briefly, FaDu cells were incubated with the above-mentioned doses of compound 8e for 24 h; all samples were collected, washed once with cold 1× PBS, and fixed by 70% ice-cold ethanol at 4 °C for 12 h. Then, the fixed cells were washed once with cold 1× PBS and stained with 500 µL 1× PI dye solution (containing 10 µL RNase A) at 37 °C for 30 min in the dark. The red fluorescence was detected using a flow cytometer (CyFlow® Cube 6, Sysmex). The data were analyzed using FlowJo Software (Tree Star Inc, Ashland, OR, USA).

[10] = tested on: FaDu cells; assay: Colony formation assay; format: cell-based; conditions: Homo sapiens, 240 h, 6 nM, 10 days, read-out: colony inhibition rate
Experimental: FaDu cells were seeded in a 6-well plate with 500 cells per well and incubated for 24 h. Then, the cells were treated with compound 8e at various final concentrations of 0, 0.75, 1.50, 3 nM. Following treatment for 10 days, the cells were washed with PBS twice and fixed with 4% paraformaldehyde for 10 min at room temperature. Then, the cell colonies were visualized by staining with 0.1% crystal violet for 10 min. The image was photographed with Handy camera, and the numbers of cell colonies were analyzed using the open Image J software (Developed by National Institutes of Health). A group of >50 cells was defined as one colony. Triplicate wells were set up for each concentration.

[11] = Homo sapiens, FaDu, 48 h, MTT, 48 h; read-out: Antiproliferative Activity IC50 ± SEM, FaDu
[12] = SI = IC50 (MCF 10A)/IC50 (FaDu)

Structure (SMILES): Cc1nc(C)c(CN(CCCCCCCCCCN(Cc2nc(C)c(C)nc2C)Cc2nc(C)c(C)nc2C)Cc2nc(C)c(C)nc2C)nc1C [Compound 6f, N^1,N^1,N^10,N^10-Tetrakis((3,5,6-Trimethylpyrazin-2-yl)Methyl)Decane-1,10-Diamine]
- IC50 [1]: 10.7 ± 0.22 µM
- IC50 ([2]; Homo sapiens): 6.57 to 20.8 µM
- IC50 [3]: 13 ± 0.55 µM
- IC50 [4]: 20.83 ± 0.14 µM
- IC50 [5]: 20.1 ± 0.41 µM
- IC50 [6]: 10.2 ± 0.55 µM
- IC50 [7, 11]: 10.9 ± 0.12 µM
- SI: selectivity index [7, 12]: 1.19

Structure (SMILES): Cc1nc(C)c(CN(CCCCCCCCCCCCN(Cc2nc(C)c(C)nc2C)Cc2nc(C)c(C)nc2C)Cc2nc(C)c(C)nc2C)nc1C [Compound 6g, N^1,N^1,N^12,N^12-Tetrakis((3,5,6-Trimethylpyrazin-2-yl)Methyl)Dodecane-1,12-Diamine]
- IC50 [1]: 9.62 ± 0.11 µM
- IC50 ([2]; Homo sapiens): 6.57 to 20.8 µM
- IC50 [3]: 6.57 ± 0.3 µM
- IC50 [4]: 9.83 ± 0.17 µM
- IC50 [5]: 9.23 ± 0.16 µM
- IC50 [6]: 7.89 ± 0.86 µM
- IC50 [7, 11]: 6.8 ± 0.05 µM
- SI: selectivity index [7, 12]: 0.97

Structure (SMILES): Cc1nc(C)c(C(=O)NCCCCCCCCCCNC(=O)c2nc(C)c(C)nc2C)nc1C [Compound 8e, N,N′-(Decane-1,10-Diyl)Bis(3,5,6-Trimethylpyrazine-2-Carboxamide)]
- IC50 [1]: > 20 µM
- apoptotic cells (early and late apoptosis ratios) ([8]; 2 nM): 34.2%
- apoptotic cells (early and late apoptosis ratios) ([8]; 5 nM): 57.7%
- apoptotic cells (early and late apoptosis ratios) ([8]; 10 nM): 79.5%
- percentage of cells in the S phase ([9]; 2 nM): 33.7%
- population of the G0/G1 phase ([9]; 2 nM): 41.8%
- percentage of cells in the S phase ([9]; 5 nM): 44.3%
- population of the G0/G1 phase ([9]; 5 nM): 44.2%
- percentage of cells in the S phase ([9]; 10 nM): 54.7%
- population of the G0/G1 phase ([9]; 10 nM): 32.4%
- inhibition at 0.006 µM [10]: ~85.4%
- IC50 [2]: 0.00136 to 1.42 µM
- IC50 [3]: 0.047 ± 0.008 µM
- IC50 [4]: 0.037 ± 0.001 µM
- IC50 [5]: 1.05 ± 0.05 µM
- IC50 [6]: 1.42 ± 0.71 µM
- IC50 [7, 11]: 0.00136 ± 0.00035 µM
- SI: selectivity index [7, 12]: 34.56

Structure (SMILES): Nc1cccc(C(=O)NCCCCCCCCCCNC(=O)c2cccc(N)c2)c1 [Compound 32e, N,N′-(Decane-1,10-Diyl)bis(3-Aminobenzamide)]
- IC50 [1]: > 20 µM
- IC50 [3]: > 20 µM
- IC50 [4]: > 20 µM
- IC50 [5]: > 20 µM
- IC50 [6]: > 20 µM
- IC50 [7, 11]: > 20 µM

Structure (SMILES): COc1cc(OC)cc(C(=O)NCCCCCCCCCCNC(=O)c2cc(OC)cc(OC)c2)c1 [Compound 33e, N,N′-(Decane-1,10-Diyl)Bis(3,5-Dimethoxybenzamide)]
- IC50 [1]: > 20 µM
- IC50 [3]: > 20 µM
- IC50 [4]: > 20 µM
- IC50 [5]: > 20 µM
- IC50 [6]: > 20 µM
- IC50 [7, 11]: 10.4 ± 0.949 µM
- SI: selectivity index [7, 12]: >1.92

Structure (SMILES): COc1cc(C(=O)NCCCCCCCCCCNC(=O)c2cc(OC)c(OC)c(OC)c2)cc(OC)c1OC [Compound 34e, N,N′-(Decane-1,10-Diyl)Bis(3,4,5-Trimethoxybenzamide)]
- IC50 [1]: > 20 µM
- IC50 [3]: > 20 µM
- IC50 [4]: > 20 µM
- IC50 [5]: > 20 µM
- IC50 [6]: > 20 µM
- IC50 [7, 11]: 5.85 ± 0.408 µM
- SI: selectivity index [7, 12]: >3.42

Structure (SMILES): COc1ccc(C(=O)NCCCCCCCCCCNC(=O)c2ccc(OC)c(OC)c2OC)c(OC)c1OC [Compound 35e, N,N′-(Decane-1,10-Diyl)Bis(2,3,4-Trimethoxybenzamide)]
- IC50 [1]: > 20 µM
- IC50 [3]: > 20 µM
- IC50 [4]: > 20 µM
- IC50 [5]: > 20 µM
- IC50 [6]: > 20 µM
- IC50 [7, 11]: > 20 µM

Structure (SMILES): COc1cccc2c1C(=O)c1c(O)c3c(c(O)c1C2=O)C[C@@](O)(C(=O)CO)C[C@@H]3O[C@H]1C[C@H](N)[C@H](O)[C@H](C)O1 [DOX, doxorubicin, reference compound]
- IC50 [1]: 28 ± 1.09 µM
- IC50 [3]: 0.55 ± 0.03 µM
- IC50 [4]: 6 ± 0.07 µM
- IC50 [5]: > 100 µM
- IC50 [6]: 11.4 ± 0.48 µM
- IC50 ([7]; Homo sapiens, FaDu; MTT, 48 h; read-out: Antiproliferative Activity IC50 ± SEM, FaDu): 1.27 ± 0.13 µM

Structure (SMILES): Cc1nc(C)c(C)nc1C [TMP, 2,3,5,6-tetramethylpyrazine, reference compound]
- IC50 [1]: > 100 µM
- IC50 [3]: > 100 µM
- IC50 [4]: > 100 µM
- IC50 [5]: > 100 µM
- IC50 [6]: > 100 µM
- IC50 [7, 11]: > 100 µM
